Where two headings read alike, the source gives them in different places.
Legend:
[1] = tested on: TAR RNA Duplex-2; test: Competition binding assay, FAM-labelled TAR RNA Duplex-2 / TAMRA-labelled ADP-1; design: species or system HIV; settings: saturating concentrations of ADP-1 competitor
Description: In order to obtain efficient fluorescent resonance energy transfer and/or quenching it is important that the fluorescent groups are placed on the reporter and the target RNA to permit close contact between the donor and acceptors after complex formation. In this experiment the FAM group on the TAR RNA target (Duplex 2) has been displaced by the addition of a base pair. This alteration to the target RNA structure has the effect of increasing the distance of the FAM group from the binding site on the TAR RNA duplex by 2 Å more than the equivalent group on the TAR RNA Duplex 1 target. In addition, insertion of the base pair rotates the FAM group by 18° compared to the equivalent group in the Duplex-1 TAR RNA target.
Because Duplex-2 has a sub-optimal spacing of the FAM-label on TAR RNA it gives rise to a poor signal in the assay compared to Duplex-1, with a less than 50% rise in fluorescence in the presence of saturating concentrations of ADP-1 competitor.

[2] = target: TAR RNA; test: Competition binding assay, FAM-labelled TAR RNA Duplex-1 / TAMRA-labelled ADP-1; design: species or system HIV; settings: for Ki: 2 nM FAM-labelled TAR RNA, 18 nM unlabelled TAR RNA; for binding to TAR RNA (competitor efficiency): FIG. 8 and FIG. 9
Procedure: This experiment was performed with a starting condition in which there is an equimolar ratio of TAMRA-labelled ADP-1 peptide and TAR RNA (both labelled and unlabelled). A pre-mix is prepared on ice containing 2 nM FAM-labelled TAR RNA, 18 nM unlabelled TAR RNA and 20 nM TAMRA-labelled ADP-1 peptide diluted in TK buffer to provide the final concentrations (as detailed above) in each 200 μl reaction volume. The ADP-1 peptide was prepared as a 2 fold dilution series in TK buffer at 10 times the assay concentration and diluted 10 fold into the final assay volume. The competition assays were equilibrated for 15 minutes at room temperature and the fluorescence-emission spectra at 535 nm determined in a Wallac Victor™ 1420 following excitation at 485 nm.
Under these conditions, the Ki for the unlabelled ADP-1 competitor was measured as 100 nM.
TAMRA-labelled ADP-1 peptide and increasing concentrations of C5 cyclic peptide (SEQ ID 9). A pre-mix is prepared on ice containing the FAM-labelled TAR RNA, unlabelled TAR RNA and the TAMRA-labelled ADP-1 peptide diluted in TK buffer to provide the final concentrations (as detailed above) in each 200 μl reaction volume. The C5 cyclic peptide was prepared as a 2 fold dilution series in TK buffer at 10 times the assay concentration and diluted 10 fold in to the final assay volume.

[3] = tested on: FAM-labelled TAR RNA; test: Quenching of FAM-labelled TAR RNA by unlabelled ADP-1 peptide; format: binding, HIV; settings: 2 nM FAM-TAR
Procedure: The FAM-TAR was diluted from a 100 nM stock solution in TK buffer (50 mM Tris-HCl pH7.6, 20 mM KCl) to obtain a final assay concentration of 2 nM in 200 μl reaction volume. The unlabelled ADP-1 peptide was prepared in TK buffer as a 2 fold dilution series at 10 times the assay concentration and diluted 10 fold into the final assay volume (200 μl). After complex formation was performed for 20 minutes at room temperature the fluorescence-emission at 535 nm was determined in a Wallac Victor™ 1420 following excitation at 485 nm.
The level of fluorescence obtained in the absence of the unlabelled ADP-1 peptide is normalised to 100% and the levels of fluorescence obtained in the presence of the unlabelled ADP-1 peptide are expressed as a percentage of this value.

[4] = target: FAM-labelled TAR RNA duplex 1; test: Quenching of FAM-labelled TAR RNA by TAMRA-labelled ADP-1 (complex formation); format: binding, HIV
Procedure: In this experiment, 2 nM FAM-labelled TAR RNA was mixed with increasing concentrations of TAMRA-labelled ADP-1 peptide. The FAM-TAR was diluted from a 100 nM stock solution in TK buffer (50 mM Tris-HCl pH 7.6, 20 mM KCl) to obtain a final assay concentration of 2 nM in 200 μl reaction volume. The TAMRA-labelled ADP-1 peptide was prepared in TK buffer as a 2-fold dilution series at 10 times the assay concentration and diluted 10 fold in to the final assay volume (200 μl). Complex formation was performed for 20 minutes at room temperature and the fluorescence-emission spectra at 535 nm determined in a Wallac Victor™ 1420 following excitation at 485 nm.
The level of fluorescence obtained in the absence of TAMRA-labelled ADP-1 peptide gave a fluorescence intensity of 2100 units. As the ADP-1 concentration is increased there is a progressive loss of fluorescence intensity detected, until at concentrations of ADP-1 greater than 100 nM there is over 80% loss of fluorescence intensity and there is no further quenching detected.

[5] = target: TAR bulge RNA; test: Dabcyl-peptide binding to Fam-labelled RNA (quenching), TAR; design: species or system HIV; settings: 110 mM KCl
Description: (§1) A representative subset comprising 40 peptide sequences from the total of 243 possible sequences was synthesised and is shown in Table 6. The peptides from the library are: No. 3 (SEQ ID NO:11), 4 (SEQ ID NO:12), 5 (SEQ ID NO:13), 6 (SEQ ID NO:14), 7 (SEQ ID NO:15), 8 (SEQ ID NO:16), 9 (SEQ ID NO:17), 10 (SEQ ID NO:18), 11 (SEQ ID NO:19), 12 (SEQ ID NO:20), 13 (SEQ ID NO:21), 14 (SEQ ID NO:22), 15 (SEQ ID NO:23), 16 (SEQ ID NO:24), 17 (SEQ ID NO:25), 18 (SEQ ID NO:26), 19 (SEQ ID NO:27), 20 (SEQ ID NO:28), 21 (SEQ ID NO:29), 22 (SEQ ID NO:30), 23 (SEQ ID NO:31), 24 (SEQ ID NO:32), 25 (SEQ ID NO:33), 26 (SEQ ID NO:34), 27 (SEQ ID NO:35), 28 (SEQ ID NO:36), 29 (SEQ ID NO:37), 30 (SEQ ID NO:38), 31 (SEQ ID NO:39), 32 (SEQ ID NO:40), 33 (SEQ ID NO:41), 34 (SEQ ID NO:42), 35 (SEQ ID NO:43), 36 (SEQ ID NO:44), 37 (SEQ ID NO:45), 38 (SEQ ID NO:46), 39 (SEQ ID NO:47), 40 (SEQ ID NO:48), 41 (SEQ ID NO:49), 42 (SEQ ID NO:50). These peptides were assayed for their ability to bind to range of RNA sequences carrying fluorescein attached to the 5′ end, as shown in FIG. 25.
(§2) FIG. 26. presents binding data for the peptide sequence 5 (KKQKR) (SEQ ID NO: 13) and the 4 RNA sequences. Reactions (100 μl) containing Fam-labelled RNA (10 nM) were mixed with increasing concentrations of Dabcyl-labelled ADP-1 peptide (up to 250 nM) in 50 mM Tris/Cl, pH7.4, 20 mM or 110 mM KCl (as indicated), 5 μg/ml BSA, 0.01% Triton X-100, 1% DMSO. Fluorescence (excitation 490 nm/emission at 535 nm) was determined using a Victor plate reader.
(§3) Dissociation constants were determined by fitting a binding isotherm (1-site-binding) to the data using the equation:
(§4) Y=((Fmax−Fmin)−((Fmax−Fmin)*X/(Kd+X)))+Fmin
(§5) where Fmax is fluorescence in the absence of quencher, Fmin is fluorescence at saturation, and X is peptide concentration.

[6] = target: GTPase-LHL RNA; test: Dabcyl-peptide binding to Fam-labelled RNA (quenching), GTPase LHL; settings: for Kd: GTPase-LHL, 110 mM KCl; for binding to the GTPase RNA: FIG. 27
Description: as §1, §2, §3, §4, §5

[7] = target: ss-19mer RNA; test: Dabcyl-peptide binding to Fam-labelled RNA (quenching), single stranded RNA; settings: for Kd: ss-19mer, 110 mM KCl
Description: as §1, §2, §3, §4, §5

[8] = target: RRE RNA; test: Dabcyl-peptide binding to Fam-labelled RNA (quenching), RRE; design: species or system HIV; settings: for Kd: RRE, 110 mM KCl
Description: as §1, §2, §3, §4, §5

[9] = 20 nM TAMRA-labelled ADP-1, 0-100 μM cyclic peptide, average ± SD of three, read-out: Ki

Row | Substance | Kd [5] | Kd [6] | Kd [7] | other results
1 | ADP-1: unlabelled peptide derived from HIV Tat, residues 37 to 72 (SEQ ID NO: 7) (FTTKALGISYGRKKRRQRRRPPQGSGTHQVSLSKQ; Human immunodeficiency virus) | – | – | – | rise in fluorescence [1]: less than 50%; Ki ([2]; 20 nM TAMRA-labelled ADP-1, read-out: Ki for the unlabelled ADP-1 competitor): 0.1 µM; quenching of the FAM group present on TAR RNA [3]: ≤ 20%
2 | TAMRA-Phe-Thr-Thr-Lys-Ala-Leu-Gly-Ile-Ser-Tyr-Gly-Arg-Lys-Lys-Arg-Arg-G ln-Arg-Arg-Arg-Pro-Pro-Gln-Gly-Ser-Gln-Thr-His-Gln-Val-Ser-Leu-Ser-Lys-Gln [TAMRA-labelled ADP-1] | – | – | – | Kd ([4]; 2 nM FAM-labelled TAR RNA, TK buffer, read-out: binding constant (Kd) of TAMRA-labelled ADP-1 for FAM-labelled TAR RNA duplex 1): ~25 nM; loss of fluorescence intensity ([4]; concentrations of ADP-1 greater than 100 nM): over 80%
3 | c(KRRFR) [C5] (cyclo(KRRFR); also: D-residues marked by underlining, not recoverable) [cyclic pentapeptide] | – | – | – | Ki [2, 9]: 1.87 ± 0.42 µM; binding to TAR RNA (competitor efficiency) [2]: most efficient competitors
4 | cyclo(KRRFR) [C5/1] | – | – | – | Ki [2, 9]: 15.3 ± 2.5 µM
5 | cyclo(KRRFR) [C5/2] | – | – | – | Ki [2, 9]: 12.7 ± 6.58 µM
6 | cyclo(KRRFR) [C5/3] | – | – | – | Ki [2, 9]: 15.2 ± 3.79 µM
7 | cyclo(KRRFR) [C5/4] | – | – | – | Ki [2, 9]: 8.28 ± 3.01 µM; binding to TAR RNA (competitor efficiency) [2]: most efficient competitors
8 | cyclo(KRRFR) [C5/5] | – | – | – | Ki [2, 9]: 17.1 ± 13 µM
9 | library peptide Dabcyl-Thr-Arg-Lys-X-X-X-X-X-Arg-Lys-Ser-Gly with X5 = KKKKK | 24 nM | 26 nM | > 500 nM | Kd [8]: 12 nM
10 | library peptide Dabcyl-Thr-Arg-Lys-X-X-X-X-X-Arg-Lys-Ser-Gly with X5 = KKKQR | 27 nM | 76 nM | > 500 nM | Kd [8]: 30 nM
11 | library peptide Dabcyl-Thr-Arg-Lys-X-X-X-X-X-Arg-Lys-Ser-Gly with X5 = KKQKR | 56 nM | 74 nM | > 500 nM | binding of the peptide, measured by quenching of the fluorescenated RNA ([7]; single stranded RNA, FIG. 26): no significant binding; binding of the peptide, measured by quenching of the fluorescenated RNA ([8]; RRE sequence compared with the other RNAs, FIG. 26): highest affinity binding; Kd [8]: 15 nM
12 | library peptide Dabcyl-Thr-Arg-Lys-X-X-X-X-X-Arg-Lys-Ser-Gly with X5 = KKQRR | – | 55 nM | > 500 nM | Kd [8]: 20 nM
13 | library peptide Dabcyl-Thr-Arg-Lys-X-X-X-X-X-Arg-Lys-Ser-Gly with X5 = KKRQR | – | 43 nM | > 500 nM | Kd [8]: 24 nM
14 | library peptide Dabcyl-Thr-Arg-Lys-X-X-X-X-X-Arg-Lys-Ser-Gly with X5 = KQKKR | 16 nM | – | – | –
15 | library peptide Dabcyl-Thr-Arg-Lys-X-X-X-X-X-Arg-Lys-Ser-Gly with X5 = KQKRR | 11 nM | – | – | –
16 | library peptide Dabcyl-Thr-Arg-Lys-X-X-X-X-X-Arg-Lys-Ser-Gly with X5 = KQQQR | > 500 nM | – | – | –
17 | library peptide Dabcyl-Thr-Arg-Lys-X-X-X-X-X-Arg-Lys-Ser-Gly with X5 = KQRQR | 9 nM | – | – | –
18 | library peptide Dabcyl-Thr-Arg-Lys-X-X-X-X-X-Arg-Lys-Ser-Gly with X5 = QQQKR | > 500 nM | – | – | –
19 | library peptide Dabcyl-Thr-Arg-Lys-X-X-X-X-X-Arg-Lys-Ser-Gly with X5 = QQQQQ | – | > 500 nM | > 500 nM | binding to the GTPase RNA [6]: no significant binding
20 | library peptide Dabcyl-Thr-Arg-Lys-X-X-X-X-X-Arg-Lys-Ser-Gly with X5 = QQQRR | > 500 nM | – | – | –
21 | library peptide Dabcyl-Thr-Arg-Lys-X-X-X-X-X-Arg-Lys-Ser-Gly with X5 = RQQQR | > 500 nM | – | – | –
22 | library peptide Dabcyl-Thr-Arg-Lys-X-X-X-X-X-Arg-Lys-Ser-Gly with X5 = RRRRR | – | 16 nM | 194 nM | binding to the GTPase RNA [6]: Efficient binding; Kd [8]: 30 nM
